In patent publication US20250018014A1, “METHOD FOR TREATING AND/OR PREVENTING REGNASE-1-RELATED DISEASE” (OSAKA UNIVERSITY, priority 2018, published 2025):
Residues, ends and D or L forms follow the SMILES beside them.

How the values were obtained:
[1] = target: T1, FL_Reg1 (full-length human Regnase-1) phosphorylation by TBK1 (Homo sapiens, UniProt Q5D1E8); test: Regnase-1 phosphorylation inhibition by compounds (AlphaScreen), TBK1, full-length Regnase-1; type: biochemical; conditions: Table 13; phosphorylation by TBK1; read-out: Phosphorylation inhibition FL_Reg1, 50% inhibition concentration (TBK1)
T1 construct: made in house; host or cells: Expi293 cells
T1 sequence (Q5D1E8 1-599): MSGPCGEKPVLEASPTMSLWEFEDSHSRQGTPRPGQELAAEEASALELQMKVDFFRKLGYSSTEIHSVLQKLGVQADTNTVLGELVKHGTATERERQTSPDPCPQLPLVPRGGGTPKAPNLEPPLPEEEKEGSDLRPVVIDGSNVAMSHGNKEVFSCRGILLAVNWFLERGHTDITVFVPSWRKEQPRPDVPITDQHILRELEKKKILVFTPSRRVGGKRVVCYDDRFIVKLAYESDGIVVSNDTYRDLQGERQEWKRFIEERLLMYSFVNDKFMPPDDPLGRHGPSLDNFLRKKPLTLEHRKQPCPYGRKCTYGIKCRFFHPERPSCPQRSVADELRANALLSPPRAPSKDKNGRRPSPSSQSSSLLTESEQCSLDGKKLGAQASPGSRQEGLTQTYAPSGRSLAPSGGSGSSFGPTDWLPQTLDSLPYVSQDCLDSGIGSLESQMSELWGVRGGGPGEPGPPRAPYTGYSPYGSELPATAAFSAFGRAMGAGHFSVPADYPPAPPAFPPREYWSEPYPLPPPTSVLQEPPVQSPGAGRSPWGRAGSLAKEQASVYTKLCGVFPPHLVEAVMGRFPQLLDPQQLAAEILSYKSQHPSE
Description: (§1) The full-length sequence of human Regnase-1 (UniProt ID: Q5D1E8) was used to prepare a construct having a FLAG tag on the N-terminal side and a recognition sequence for biotin ligase BirA on the C-terminal side (FL_Reg1) as a target protein. The above-mentioned Regnase-1 was expressed in mammalian Expi293 cells, purified with FLAG M2 agarose, and isolated by gel filtration chromatography. When biotinylation was required, methods from nonpatent documents (BMC biotechnology, 2008,8,41; and Protein Science, 1999,8,921-929) were used. […]
(§2) Using Kinase assay buffer III (manufactured by SignalChem) supplemented with 2 mM DTT, 100 μM sodium vanadate, and 2 mM manganese chloride, kinase (IKKβ (manufactured by SignalChem) or TBK1 (manufactured by SignalChem)) and Regnase-1 were reacted in the presence of 10 μM ATP at room temperature for 2 hours to perform a phosphorylation reaction.
(§3) Phosphorylated Regnase-1 was detected by the AlphaScreen system. After each of the above-mentioned phosphorylated Regnase-1 antibodies was added and reacted at room temperature for one hour, anti-FLAG AlphaLISA Acceptor Beads (manufactured by PerkinElmer) and Protein A AlphaScreen Donor Beads (manufactured by PerkinElmer) were added, and EnVision (manufactured by PerkinElmer) was used to measure the excited luminescence. As a result, phosphorylated Regnase-1 produced by the phosphorylation reaction by kinase was specifically detected, and signals were confirmed to be enhanced in a manner dependent on Regnase-1 and kinase concentrations (FIG. 24).
(§4) After mixing 2 nM of the above-mentioned Regnase-1 and the compound, phosphorylated Regnase-1 produced by the phosphorylation reaction was detected by the AlphaScreen system. As the results, the inhibition rate was calculated from the signals obtained when adding the compound at each concentration, by defining the signal obtained with Regnase-1 alone to be 100% inhibition rate, and the signal obtained when the same amount of solvent (DMSO) is added in place of the compound as 0% inhibition rate. The 50% inhibition concentration (μM) was calculated from the obtained dose response curve (Table 11).

[2] = target: T2, binding between TBK1 and full-length Regnase-1 (FL_Reg1) (Homo sapiens, UniProt Q5D1E8); test: Inhibition of kinase-Regnase-1 binding by the compounds (AlphaScreen), TBK1; conditions: Table 13; binding between TBK1 and Regnase-1; read-out: Binding inhibition FL_Reg1, 50% inhibition concentration (TBK1)
T2 construct: made in house; host or cells: Expi293 cells
T2 sequence (Q5D1E8 1-599): T1 sequence (Q5D1E8 1-599)
Procedure: (§5) As a target protein, a construct having a FLAG tag on the N-terminal side and a recognition sequence for biotin ligase BirA on the C-terminal side of the full-length sequence of human Regnase-1 (UniProt ID: Q5D1E8) was prepared (FL_Reg1). The above-mentioned Regnase-1 was expressed in mammalian Expi293 cells, purified with FLAG M2 agarose, and isolated by gel filtration chromatography. When biotinylation was required, methods from nonpatent documents (BMC biotechnology, 2008,8,41; and Protein Science, 1999,8,921-929) were used.
(§6) After mixing 2.5 nM of the above-mentioned Regnase-1 and the compound, 2.5 nM of IKKβ or TBK1 was added and reacted at room temperature for two hours. Then, Anti FLAG AlphaLISA Acceptor Beads (manufactured by PerkinElmer) and Glutathione-coated AlphaScreen Donor Beads (manufactured by PerkinElmer) were added, and excited luminescence was measured using En Vision (manufactured by PerkinElmer). As the results, the inhibition rate from the signals obtained when adding the compound at each concentration were calculated, by defining the signal obtained with Regnase-1 alone to be 100% inhibition rate, and the signal obtained when the same amount of solvent (DMSO) is added in place of the compound as 0% inhibition rate. The 50% inhibition concentration (μM) was calculated from the obtained dose response curve (Table 12).

FL_Reg1 = target: T3, FL_Reg1 (Homo sapiens, UniProt Q5D1E8); test: Binding of Regnase-1 and peptide compounds (affinity mass analysis, SEC then LC/MS); conditions: 1 μM FL_Reg1, final compound concentration 1 μM, 23° C. for one hour
T3 construct: made in house; host or cells: Expi293 cells
T3 sequence (Q5D1E8 1-599): T1 sequence (Q5D1E8 1-599)
Procedure: To a 96 PP plate (Greiner bio-one, 651201) coated with lipidure (Lipidure-CM5206) (NOF CORPORATION, 71S42000001), 2 μL of Tris-Buffer (25 mM Tris-NaOH pH 8.3, 300 mM NaCl, 1 mM DTT, 1 mM EDTA, 1% DMSO) was dispensed, and then 1 mM DMSO sample was added at 20 nL each with a LABCYTE ECHO (registered trademark) acoustic dispensing system. Furthermore, 18 μL of protein prepared at 1 μM FL_Reg1 in advance using Tris-Buffer was added (final compound concentration: 1 μM), and the mixture was incubated in the dark at 23° C. for one hour. Then, to a 96-well, 400 μL, Hydrophilic PVDF 0.45 μm, Long drip (Harvard, 74-5556), 100 μL of P-2, Fine (Bio-Rad, 1504114) which had been swollen in advance was added, and conditioning was performed by centrifuging several times at 2000× G for two minutes using the buffer. Next, 20 μL of the sample after incubation was added to the conditioned 96-well, 400 μL, Hydrophilic PVDF 0.45 μm, Long drip, and SEC treatment was performed by centrifugation at 2000×G for two minutes. To the liquid from SEC, 32 μL of acetonitrile (LC/MS grade, FUJIFILM Wako Pure Chemical Industries, Ltd.) supplemented with 0.1% formic acid (LC/MS grade, 067-04531, FUJIFILM Wako Pure Chemical Industries, Ltd.) was added, and this was centrifuged at 1800×G for five minutes, and the supernatant was used as an analysis sample for LC/MS measurement. Binding to Regnase-1 was detected for all of the peptide compounds, PP1 to PP25.

[3] = target: T4, FL_Reg1 (full-length human Regnase-1) phosphorylation by IKKβ (Homo sapiens, UniProt Q5D1E8); test: Regnase-1 phosphorylation inhibition by compounds (AlphaScreen), IKKβ, full-length Regnase-1; type: biochemical; conditions: Table 14; phosphorylation by IKKβ; read-out: Phosphorylation inhibition FL_Reg1, 50% inhibition concentration (IKKβ)
T4 construct: made in house; host or cells: Expi293 cells
T4 sequence (Q5D1E8 1-599): T1 sequence (Q5D1E8 1-599)
Description: as §1, §2, §3, §4

[4] = target: T5, binding between IKKβ and full-length Regnase-1 (FL_Reg1) (Homo sapiens, UniProt Q5D1E8); test: Inhibition of kinase-Regnase-1 binding by the compounds (AlphaScreen), IKKβ; conditions: Table 14; binding between IKKβ and Regnase-1; read-out: Binding inhibition FL_Reg1, 50% inhibition concentration (IKKβ)
T5 construct: made in house; host or cells: Expi293 cells
T5 sequence (Q5D1E8 1-599): T1 sequence (Q5D1E8 1-599)
Procedure: as §5, §6

[5] = target: T6, Reg1_301-599 (amino acids 301-599 of human Regnase-1) phosphorylation by TBK1 (Homo sapiens, UniProt Q5D1E8); test: Regnase-1 phosphorylation inhibition by compounds (AlphaScreen), TBK1, C-terminal Regnase-1; type: biochemical; conditions: Table 13, read-out: Phosphorylation inhibition Reg1_301-599, 50% inhibition concentration (TBK1)
T6 construct: made in house; host or cells: Expi293 cells
T6 sequence (Q5D1E8 301-599): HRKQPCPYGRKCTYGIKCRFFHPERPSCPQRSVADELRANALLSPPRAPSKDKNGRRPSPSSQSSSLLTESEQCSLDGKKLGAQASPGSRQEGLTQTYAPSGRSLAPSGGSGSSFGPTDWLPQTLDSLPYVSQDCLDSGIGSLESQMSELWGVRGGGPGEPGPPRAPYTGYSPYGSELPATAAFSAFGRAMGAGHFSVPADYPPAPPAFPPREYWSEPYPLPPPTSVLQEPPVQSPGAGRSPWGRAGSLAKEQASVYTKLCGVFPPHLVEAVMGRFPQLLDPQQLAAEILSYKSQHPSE
Procedure: (§7) Among the full-length human Regnase-1 sequence, the 1st to 546th amino acid sequence was prepared and made into a construct having a FLAG tag on the N-terminal side and a biotin ligase BirA recognition sequence on the C-terminal side (herein, a Regnase-1 lacking the C-terminal domain of Regnase-1 (amino acids 547 to 599 in the case of SEQ ID NO: 2) is referred to as “ΔCTD_Reg1”. “ΔCTD_Reg1” is different from “Regnase-1ΔCTD”, which is a C-terminal domain deletion variant resulting from a frameshift mutation caused by a 1 bp deletion at codon 517, as prepared in Example 13). In addition, the sequence from amino acids 301 to 599 of the full-length human Regnase-1 sequence was designated as C-terminal Regnase-1, and a construct having a FLAG tag on the N-terminal side and a recognition sequence for biotin ligase BirA on the C-terminal side was prepared (Reg1_301-599). The above-mentioned Regnase-1 was expressed in mammalian Expi293 cells, purified with FLAG M2 agarose, and isolated by gel filtration chromatography. When biotinylation was required, methods of nonpatent documents (BMC biotechnology, 2008,8,41; and Protein Science, 1999,8,921-929) were used.
as §2, §3, §4

[6] = target: T7, Reg1_301-599 (amino acids 301-599 of human Regnase-1) phosphorylation by IKKβ (Homo sapiens, UniProt Q5D1E8); test: Regnase-1 phosphorylation inhibition by compounds (AlphaScreen), IKKβ, C-terminal Regnase-1; type: biochemical; conditions: Table 14, read-out: Phosphorylation inhibition Reg1_301-599, 50% inhibition concentration (IKKβ)
T7 construct: made in house; host or cells: Expi293 cells
T7 sequence (Q5D1E8 301-599): T6 sequence (Q5D1E8 301-599)
Description: The full-length sequence of human Regnase-1 (UniProt ID: Q5D1E8) was used to prepare a construct having a FLAG tag on the N-terminal side and a recognition sequence for biotin ligase BirA on the C-terminal side (FL_Reg1) as a target protein. The above-mentioned Regnase-1 was expressed in mammalian Expi293 cells, purified with FLAG M2 agarose, and isolated by gel filtration chromatography. When biotinylation was required, methods from nonpatent documents (BMC biotechnology, 2008,8,41; and Protein Science, 1999,8,921-929) were used.
as §7, §2, §3, §4

Compound	IC50 [1] [µM]	IC50 [2] [µM]	AS-MS ratio(%) (FL_Reg1)	IC50 [3] [µM]	IC50 [4] [µM]	IC50 [5] [µM]	IC50 [6] [µM]
CC(C)[C@@H]1NC(=O)[C@H](Cc2c[nH]c3ccccc23)NC(=O)[C@H](CCCCN)NC(=O)[C@H](Cc2c[nH]c3ccccc23)NC(=O)[C@H](CCC(N)=O)NC(=O)[C@H](CCCNC(=N)N)NC(=O)[C@H](Cc2ccccc2)NC(=O)[C@H](CCCNC(=N)N)NC(=O)[C@H](C)N(C)C(=O)C[C@@H](C(=O)N2CCCC2)NC(=O)[C@@H]2CCCN2C(=O)[C@H](Cc2ccc(O)cc2)NC1=O [PP13] (HELM PEPTIDE1{[meA].R.F.R.Q.W.K.W.V.Y.P.D.[C1CCN([*:1])C1]}$PEPTIDE1,PEPTIDE1,1:R1-12:R3$$$V2.0)	8.4	13.8	0.1	3.6	16.9	–	–
CC[C@H](C)[C@@H]1NC(=O)[C@H](Cc2c[nH]c3ccccc23)NC(=O)[C@H](CO)NC(=O)[C@H](Cc2c[nH]c3ccccc23)NC(=O)[C@H](C(C)C)NC(=O)CNC(=O)[C@H](Cc2ccccc2)NC(=O)[C@H](CCCNC(=N)N)NC(=O)[C@H](C)N(C)C(=O)C[C@@H](C(=O)N2CCCC2)NC(=O)[C@@H]2CCCN2C(=O)[C@H](Cc2ccc(O)cc2)NC1=O [PP14] (HELM PEPTIDE1{[meA].R.F.G.V.W.S.W.I.Y.P.D.[C1CCN([*:1])C1]}$PEPTIDE1,PEPTIDE1,1:R1-12:R3$$$V2.0)	3.1	7.1	–	1.6	20.1	6.8	6.5
